Data reported in patent US12599672B2, “KRAS proteolysis targeting chimeras” (PAQ Therapeutics Inc., priority 2023, dated 2026).

These compounds were tested against T1, KRAS G12D (Homo sapiens, UniProt P01116, G12D) (assay: KRAS G12D HiBit assay). Conditions: AsPc-1-KRAS (G12D)-HiBit-KI cell, compound treatment for 24 hours, absolute DC50; class symbols.
T1 construct: AsPc-1-KRAS (G12D)-HiBit-KI cell (Pharmaron); host or cells: AsPc-1-KRAS (G12D)-HiBit-KI cells (HiBiT knock-in at the endogenous KRAS locus)
Assay type: cell-based
Protocol: Day 1. […] Allowed cells to reach approximately 80% confluence before splitting. Rinsed cultivated cells in T-75 flasks with 5 mL PBS (Solarbio, P1020-500). […] Inactivated trypsin by adding excessive serum containing medium. Harvested the cells from flask into cell culture medium and counted the cell number.
Day 2. Test compounds were dissolved at 0.3 mM in DMSO (Solarbio, D8371) as stock solution. […] Performed 3-fold, 10-points dilution via transferring 15 μL compound into 30 μL DMSO by using TECAN liquid handler (TECAN, Freedom EVO200).
Day 3. After compound treatment for 24 hours, removed the plate from incubators and equilibrated at room temperature for 15 minutes. Prepared the HiBit reagent (Promega, N3040) by mixing 10 mL of Nano-Glo®-HiBiT Lytic Buffer with 200 μL of Nano-Glo®-HiBiT Lytic Substrate and 100 μL of LgBiT Protein. Added 20 μL of HiBit reagent into each well of the cell plate and spun the plates at room temperature at 1,000 RPM for 1 minute.
The inhibition activity was calculated using the following formula:
[formula] where HC (high control) is obtained from cells treated with 0.1% DMSO only.

T1 sequence (P01116 1-188 isoform P01116-2 G12D): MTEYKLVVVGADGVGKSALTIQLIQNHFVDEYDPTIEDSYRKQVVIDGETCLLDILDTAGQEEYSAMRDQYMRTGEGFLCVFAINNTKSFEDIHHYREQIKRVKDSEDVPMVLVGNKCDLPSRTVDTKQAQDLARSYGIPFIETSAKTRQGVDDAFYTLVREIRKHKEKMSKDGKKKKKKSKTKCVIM

Row | SMILES | DC50
1 | C#Cc1c(F)ccc2cccc(-c3ncc4c(N5CCC[C@@](C)(O)C5)nc(OCC5(CN6CCC(CN7CCC(c8ccc9c(c8)n(C)c(=O)n9C8CCC(=O)NC8=O)CC7)CC6)CC5)nc4c3F)c12 (some centres unmarked) [Compound 48] | > 300 nM
2 | C#Cc1c(F)ccc2cccc(-c3ncc4c(N5CCC[C@@](C)(O)C5)nc(OCC5(CN6CCN(CC7CCN(c8ccc9c(c8)n(C)c(=O)n9C8CCC(=O)NC8=O)CC7)CC6)CC5)nc4c3F)c12 (some centres unmarked) [Compound 24] | > 300 nM
3 | C#Cc1c(F)ccc2cccc(-c3ncc4c(N5CCC[C@@](C)(O)C5)nc(OCC5(CN6CCC(N7CCC(c8ccc9c(c8)n(C)c(=O)n9C8CCC(=O)NC8=O)CC7)CC6)CC5)nc4c3F)c12 (some centres unmarked) [Compound 39] | > 300 nM
4 | C#Cc1c(F)ccc2cc(O)cc(-c3ncc4c(N5CCC[C@@](C)(O)C5)nc(OCC5(CN6CCN(C7CCN(c8ccc9c(c8)n(C)c(=O)n9C8CCC(=O)NC8=O)CC7)CC6)CC5)nc4c3F)c12 (some centres unmarked) [Compound 45] | < 100 nM
5 | C#Cc1c(F)ccc2cccc(-c3ncc4c(N5CCC[C@@](C)(O)C5)nc(OCC5(CN6CCN(CCN7CCN(c8ccc9c(c8)n(C)c(=O)n9C8CCC(=O)NC8=O)CC7)CC6)CC5)nc4c3F)c12 (some centres unmarked) [Compound 27] | > 300 nM
6 | C#Cc1c(F)ccc2cccc(-c3ncc4c(N5CCC[C@@](C)(O)C5)nc(OC[C@@]56CCCN5[C@H](COC(=O)NCCOCCOc5ccc7c(c5)n(C)c(=O)n7C5CCC(=O)NC5=O)CC6)nc4c3F)c12 (some centres unmarked) [Compound 107] | > 300 nM
7 | C#Cc1c(F)ccc2cc(O)cc(-c3ncc4c(N5CCC[C@@](C)(O)C5)nc(OCC5(CN6CCC(N7CCC(c8cccc9c8n(C)c(=O)n9C8CCC(=O)NC8=O)CC7)CC6)CC5)nc4c3F)c12 (some centres unmarked) [Compound 85] | < 100 nM
8 | C#Cc1c(F)ccc2cc(O)cc(-c3ncc4c(N5CCC[C@@](C)(O)C5)nc(OC[C@@]56CCCN5[C@H](COC(=O)NCCOCCOc5ccc7c(c5)n(C)c(=O)n7C5CCC(=O)NC5=O)CC6)nc4c3F)c12 (stereo partly drawn) [Compound 114, ((3S,7aS)-7a-(((7-(8-Ethynyl-7-fluoro-3-hydroxynaphthalen-1-yl)-8-fluoro-4-((R)-3-hydro-xy-3-methylpiperidin-1-yl)pyrido[4,3-d]pyrimidin-2-yl)oxy)methyl)hexahydro-1H-pyrrolizin-3-yl)methyl (2-(2-((1-(2,6-dioxopiperidin-3-yl)-3-methyl-2-oxo-2,3-dihydro-1H-benzo[d]imidazol-5-yl)oxy)ethoxy)ethyl) carbamate] | > 300 nM
9 | C#Cc1c(F)ccc2cc(O)cc(-c3ncc4c(N5CCC[C@@](C)(O)C5)nc(OCC5(CN6CCC(CN7CCN(c8ccc9c(c8)C(=O)N(C8CCC(=O)NC8=O)C9=O)CC7)CC6)CC5)nc4c3F)c12 (some centres unmarked) [Compound 46] | < 100 nM
10 | C#Cc1c(F)ccc2cccc(-c3ncc4c(N5CCC[C@@](C)(O)C5)nc(OC[C@@]56CCCN5[C@H](COC(=O)NCCOCCOCCOc5ccc7c(c5)n(C)c(=O)n7C5CCC(=O)NC5=O)CC6)nc4c3F)c12 (stereo partly drawn) [Compound 108, ((3S,7aS)-7a-(((7-(8-ethynyl-7-fluoronaphthalen-1-yl)-8-fluoro-4-((R)-3-hydroxy-3-methylpiperidin-1-yl)pyrido[4,3-d]pyrimidin-2-yl)oxy)methyl)hexahydro-1H-pyrrolizin-3-yl)methyl (2-(2-(2-((1-(2,6-dioxopiperidin-3-yl)-3-methyl-2-oxo-2,3-dihydro-1H-benzo[d]imidazol-5-yl)oxy)ethoxy)ethoxy)ethyl) carbamate] | > 300 nM
11 | C#Cc1c(F)ccc2cc(O)cc(-c3ncc4c(N5CCC[C@@](C)(O)C5)nc(OC[C@@]56CCCN5[C@H](COC(=O)NCCOCCOCCOc5ccc7c(c5)n(C)c(=O)n7C5CCC(=O)NC5=O)CC6)nc4c3F)c12 (stereo partly drawn) [Compound 115, ((3S,7aS)-7a-(((7-(8-ethynyl-7-fluoro-3-hydroxynaphthalen-1-yl)-8-fluoro-4-((R)-3-hydroxy-3-methylpiperidin-1-yl)pyrido[4,3-d]pyrimidin-2-yl)oxy)methyl)hexahydro-1H-pyrrolizin-3-yl)methyl (2-(2-(2-((1-(2,6-dioxopiperidin-3-yl)-3-methyl-2-oxo-2,3-dihydro-1H-benzo[d]imidazol-5-yl)oxy)ethoxy)ethoxy)ethyl) carbamate] | > 300 nM
12 | C#Cc1c(F)ccc2cccc(-c3ncc4c(N5CCC[C@@](C)(O)C5)nc(OCC5(CN6CCC7(CC6)CC(N6CCC(c8ccc9c(c8)n(C)c(=O)n9C8CCC(=O)NC8=O)CC6)C7)CC5)nc4c3F)c12 (some centres unmarked) [Compound 36] | > 300 nM
13 | C#Cc1c(F)ccc2cccc(-c3ncc4c(N5CCC[C@@](C)(O)C5)nc(OCC5(CN6CCC7(CCC(c8cccc9c8n(C)c(=O)n9C8CCC(=O)NC8=O)CC7)CC6)CC5)nc4c3F)c12 (some centres unmarked) [Compound 66] | > 300 nM
14 | C#Cc1c(F)ccc2cc(O)cc(-c3ncc4c(N5CCC[C@@](C)(O)C5)nc(OCC5(CN6CCC(N7CCN(c8ccc9c(c8)n(C)c(=O)n9C8CCC(=O)NC8=O)CC7)CC6)CC5)nc4c3F)c12 (some centres unmarked) [Compound 30] | < 100 nM
15 | C#Cc1c(F)ccc2cc(O)cc(-c3ncc4c(N5CCC[C@@](C)(O)C5)nc(OCC5(CN6CCC(N7CCC(c8ccc9c(c8)n(C)c(=O)n9C8CCC(=O)NC8=O)CC7)CC6)CC5)nc4c3F)c12 (some centres unmarked) [Compound 59] | < 100 nM
16 | C#Cc1c(F)ccc2cccc(-c3ncc4c(N5CCC[C@@](C)(O)C5)nc(OCC5(CN6CCN(Cc7cccc8c7n(C)c(=O)n8C7CCC(=O)NC7=O)CC6)CC5)nc4c3F)c12 (some centres unmarked) [Compound 61] | > 300 nM
17 | C#Cc1c(F)ccc2cccc(-c3ncc4c(N5CCC[C@@](C)(O)C5)nc(OC[C@@]56CCCN5[C@H](COC(=O)NCCOCCOCCOCCOc5ccc7c(c5)n(C)c(=O)n7C5CCC(=O)NC5=O)CC6)nc4c3F)c12 (stereo partly drawn) [Compound 109, ((3S,7aS)-7a-(((7-(8-ethynyl-7-fluoronaphthalen-1-yl)-8-fluoro-4-((R)-3-hydroxy-3-methylpiperidin-1-yl)pyrido[4,3-d]pyrimidin-2-yl)oxy)methyl)hexahydro-1H-pyrrolizin-3-yl)methyl (2-(2-(2-(2-((1-(2,6-dioxopiperidin-3-yl)-3-methyl-2-oxo-2,3-dihydro-1H-benzo[d]imidazol-5-yl)oxy)ethoxy)ethoxy)ethoxy)ethyl) carbamate] | > 300 nM
18 | C#Cc1c(F)ccc2cccc(-c3ncc4c(N5CCC[C@@](C)(O)C5)nc(OCC5(CN6CCC(CN7CCN(c8ccc9c(c8)n(C)c(=O)n9C8CCC(=O)NC8=O)CC7)CC6)CC5)nc4c3F)c12 (some centres unmarked) [Compound 26] | > 300 nM
19 | C#Cc1c(F)ccc2cccc(-c3ncc4c(N5CCC[C@@](C)(O)C5)nc(OCC5(CN6CCC(N7CCN(c8ccc9c(c8)n(C)c(=O)n9C8CCC(=O)NC8=O)CC7)CC6)CC5)nc4c3F)c12 (some centres unmarked) [Compound 29] | > 300 nM
20 | CCc1c(F)ccc2cc(O)cc(-c3ncc4c(N5CCC[C@@](C)(O)C5)nc(OC[C@@]56CCCN5[C@H](COC(=O)NCCOCCOCCOc5ccc7c(c5)n(C)c(=O)n7C5CCC(=O)NC5=O)CC6)nc4c3F)c12 (stereo partly drawn) [Compound 113, ((3S,7aS)-7a-(((7-(8-Ethyl-7-fluoro-3-hydroxynaphthalen-1-yl)-8-fluoro-4-((R)-3-hydroxy-3-methylpiperidin-1-yl)pyrido[4,3-d]pyrimidin-2-yl)oxy)methyl)hexahydro-1H-pyrrolizin-3-yl)methyl (2-(2-(2-((1-(2,6-dioxopiperidin-3-yl)-3-methyl-2-oxo-2,3-dihydro-1H-benzo[d]imidazol-5-yl)oxy)ethoxy)ethoxy)ethyl) carbamate] | > 300 nM
21 | C#Cc1c(F)ccc2cccc(-c3ncc4c(N5CCC[C@@](C)(O)C5)nc(OCC5(CN6CCN(Cc7ccc8c(c7)n(C)c(=O)n8C7CCC(=O)NC7=O)CC6)CC5)nc4c3F)c12 (some centres unmarked) [Compound 37] | > 300 nM
22 | C#Cc1c(F)ccc2cc(O)cc(-c3ncc4c(N5CCC[C@@](C)(O)C5)nc(OCC5(CN6CCC7(CC6)CC(N6CCC(c8ccc9c(c8)n(C)c(=O)n9C8CCC(=O)NC8=O)CC6)C7)CC5)nc4c3F)c12 (some centres unmarked) [Compound 54] | < 100 nM
23 | C#Cc1c(F)ccc2cccc(-c3ncc4c(N5CCC[C@@](C)(O)C5)nc(OCC5(CN6CCC7(CC6)CC(N6CCN(c8ccc9c(c8)n(C)c(=O)n9C8CCC(=O)NC8=O)CC6)C7)CC5)nc4c3F)c12 (some centres unmarked) [Compound 41] | > 300 nM

Same assay, conditions: AsPc-1-KRAS (G12D)-HiBit-KI cell, compound treatment for 24 hours, absolute DC50; numeric bounds given in place of class symbols

Row | SMILES | DC50
24 | C#Cc1c(F)ccc2cccc(-c3ncc4c(N5CCC[C@@](C)(O)C5)nc(OCC5(CN6CCC7(CC6)CC(N6CCC(c8cccc9c8n(C)c(=O)n9C8CCC(=O)NC8=O)CC6)C7)CC5)nc4c3F)c12 (some centres unmarked) [Compound 44] | > 100 nM
25 | C#Cc1c(F)ccc2cccc(-c3ncc4c(N5CCC[C@@](C)(O)C5)nc(OCC5(CN6CCC7(CC6)CCN(c6ccc8c(c6)n(C)c(=O)n8C6CCC(=O)NC6=O)CC7)CC5)nc4c3F)c12 (some centres unmarked) [Compound 38] | > 100 nM
26 | C#Cc1c(F)ccc2cccc(-c3ncc4c(N5CCC[C@@](C)(O)C5)nc(OC5CCN(CC(=O)N6CCC7(CC6)CC(N6CCC(c8ccc9c(c8)n(C)c(=O)n9C8CCC(=O)NC8=O)CC6)C7)CC5)nc4c3F)c12 (some centres unmarked) [Compound 87] | > 100 nM

Same assay, conditions: AsPc-1-KRAS (G12D)-HiBit-KI cell, compound treatment for 24 hours; class symbols

Row | SMILES | Dmax
27 | C#Cc1c(F)ccc2cccc(-c3ncc4c(N5CCC[C@@](C)(O)C5)nc(OC[C@@]56CCCN5[C@H](COC(=O)NCCOCCOc5ccc7c(c5)n(C)c(=O)n7C5CCC(=O)NC5=O)CC6)nc4c3F)c12 (some centres unmarked) [Compound 107] | 15 to 50%
28 | C#Cc1c(F)ccc2cccc(-c3ncc4c(N5CCC[C@@](C)(O)C5)nc(OC[C@@]56CCCN5[C@H](COC(=O)NCCOCCOCCOc5ccc7c(c5)n(C)c(=O)n7C5CCC(=O)NC5=O)CC6)nc4c3F)c12 (stereo partly drawn) [Compound 108, ((3S,7aS)-7a-(((7-(8-ethynyl-7-fluoronaphthalen-1-yl)-8-fluoro-4-((R)-3-hydroxy-3-methylpiperidin-1-yl)pyrido[4,3-d]pyrimidin-2-yl)oxy)methyl)hexahydro-1H-pyrrolizin-3-yl)methyl (2-(2-(2-((1-(2,6-dioxopiperidin-3-yl)-3-methyl-2-oxo-2,3-dihydro-1H-benzo[d]imidazol-5-yl)oxy)ethoxy)ethoxy)ethyl) carbamate] | 15 to 50%
29 | C#Cc1c(F)ccc2cccc(-c3ncc4c(N5CCC[C@@](C)(O)C5)nc(OC[C@@]56CCCN5[C@H](COC(=O)NCCOCCOCCOCCOc5ccc7c(c5)n(C)c(=O)n7C5CCC(=O)NC5=O)CC6)nc4c3F)c12 (stereo partly drawn) [Compound 109, ((3S,7aS)-7a-(((7-(8-ethynyl-7-fluoronaphthalen-1-yl)-8-fluoro-4-((R)-3-hydroxy-3-methylpiperidin-1-yl)pyrido[4,3-d]pyrimidin-2-yl)oxy)methyl)hexahydro-1H-pyrrolizin-3-yl)methyl (2-(2-(2-(2-((1-(2,6-dioxopiperidin-3-yl)-3-methyl-2-oxo-2,3-dihydro-1H-benzo[d]imidazol-5-yl)oxy)ethoxy)ethoxy)ethoxy)ethyl) carbamate] | 15 to 50%
